{"source": "patent US20070225248A1", "about": "(Clavis Pharma AS, priority 2006, published 2007)", "key": {"[1]": {"test": "Maximum tolerated dose, administration every third day repeated five times", "assay_type": "in vivo, mice", "conditions": "administered every third day", "description": "This is shown below by the experiments presented in table 1 and table 2 using different mice strains and also different human colon xenografts."}, "[2]": {"system": "Colon 6044 (human colon carcinoma)"}, "[3]": {"system": "Colon 6044 (human colon carcinoma)", "test": "Antitumour activity in Co6044 after oral administration, different dosing schedules (Table 4)", "assay_type": "in vivo, mice", "conditions": "for Toxic deaths (d): 7 mice; for Optimum T/C [%] (on day): significant vs saline", "description": "Antitumour Activity of Elaidic Acid (5′)-Gemcitabine Ester in Co6044 After Oral Administration"}, "[4]": {"system": "Colon 5776 (human colon carcinoma)", "test": "Antitumour activity in human colon cancer xenograft Co5776, IP treatment", "conditions": "for Toxic deaths (d): 8 NCR:nu/nu female mice; for Optimum T/C [%] (volume of treated tumour versus control tumour): significant vs saline; for antitumour activity in terms of reductions in tumor growth (in words): FIG. 1", "source_text": "(§1) Human colon cancer Co5776 was inserted to Ncr:nu/nu female mice subcutaneously, and treatment started when tumors reached a mean volume of 100 mm^3."}, "[5]": {"system": "Co6044 (human colon carcinoma)", "test": "Antitumour activity in human colon cancer xenograft Co6044, IP treatment", "conditions": "for Toxic deaths (d): 8 mice; for Optimum T/C [%]: significant vs saline", "source_text": "(§2) Treatment started when the tumors reached a mean volume of 100 mm^3."}, "[6]": {"system": "Co6044 (human colon carcinoma)", "conditions": "mouse, in vivo, ip, 120 mg/kg", "source_text": "as §2"}, "[7]": {"system": "Colon 5776 (human colon carcinoma)", "conditions": "mouse, in vivo, ip, 120 mg/kg", "source_text": "as §1"}, "[8]": {"conditions": "Oral 10 mg/kg, D 7, 10, 13, 16, 19"}, "[9]": {"conditions": "Oral 15 mg/kg, D 7, 10, 13, 16, 19"}, "[10]": {"conditions": "IP 40 mg/kg, D8, 11, 14, 17, 20"}, "[11]": {"conditions": "IP 120 mg/kg, D8, 11, 14, 17, 20"}}, "note": "Where two headings read alike, the source gives them in different places. Marks after values point to notes of the source that are not given here.", "data": [{"compound": "CCCCCCCC/C=C/CCCCCCCC(=O)OC[C@H]1O[C@@H](n2ccc(N)nc2=O)C(F)(F)[C@@H]1O", "note": "[Elaidic acid (5′)-gemcitabine ester, elaidic acid (5′)-gemcitabine ester]", "values": [{"measurement": "maximum tolerated dose", "setting": "[1]", "result": 40, "unit": "mg/kg per injection"}, {"measurement": "BWC [%] D 13", "setting": "[2]; Oral 40 mg/kg, Q3 × 5, D 13", "result": "−7", "unit": "%"}, {"measurement": "Toxic deaths (d)", "setting": "[2]; Oral 40 mg/kg, Q3 × 5, deaths on day 15", "result": "2/8 (15)"}, {"measurement": "Optimum T/C [%] (on day)", "setting": "[2]; Oral 40 mg/kg, Q3 × 5, optimum on day 27, significant vs saline", "result": "5(27)* %"}, {"measurement": "Optimum T/C [%] (on day)", "setting": "[2]; Oral 60 mg/kg, Q3 × 5", "result": "Toxic"}, {"measurement": "BWC [%] D 13", "setting": "[2]; Oral 60 mg/kg, Q3 × 5, D 13", "result": "−9", "unit": "%"}, {"measurement": "Toxic deaths (d)", "setting": "[2]; Oral 60 mg/kg, Q3 × 5, deaths days 12-24", "result": "6/8(12-24)"}, {"measurement": "Optimum T/C [%] (on day)", "setting": "[2]; Oral 80 mg/kg, Q3 × 5", "result": "Toxic"}, {"measurement": "BWC [%] D 13", "setting": "[2]; Oral 80 mg/kg, Q3 × 5, D 13", "result": "−6", "unit": "%"}, {"measurement": "Toxic deaths (d)", "setting": "[2]; Oral 80 mg/kg, Q3 × 5, deaths days 16-22", "result": "6/8(16-22)"}, {"measurement": "activity and tolerability when given orally (in words)", "setting": "[2]; oral, 40 mg/kg", "result": "highly active and tolerable"}, {"measurement": "BWC [%]", "setting": "[3]; Oral 5 mg/kg, D 7-11", "result": "−3", "unit": "%"}, {"measurement": "Toxic deaths (d)", "setting": "[3]; Oral 5 mg/kg, D 7-11", "result": 0}, {"measurement": "Optimum T/C [%] (on day)", "setting": "[3]; Oral 5 mg/kg, D 7-11, optimum on day 28", "result": "10(28)* %"}, {"measurement": "BWC [%]", "setting": "[3]; [8]", "result": "−1", "unit": "%"}, {"measurement": "Toxic deaths (d)", "setting": "[3]; [8]", "result": 0}, {"measurement": "Optimum T/C [%] (on day)", "setting": "[3]; Oral 10 mg/kg, D 7, 10, 13, 16, 19, optimum on day 24", "result": "35(24)* %"}, {"measurement": "BWC [%]", "setting": "[3]; Oral 10 mg/kg, D 7-11", "result": "−5", "unit": "%"}, {"measurement": "Toxic deaths (d)", "setting": "[3]; Oral 10 mg/kg, D 7-11", "result": 0}, {"measurement": "Optimum T/C [%] (on day)", "setting": "[3]; Oral 10 mg/kg, D 7-11, optimum on day 17", "result": "8(17)* %"}, {"measurement": "BWC [%]", "setting": "[3]; [9]", "result": "−1", "unit": "%"}, {"measurement": "Toxic deaths (d)", "setting": "[3]; [9]", "result": 0}, {"measurement": "Optimum T/C [%] (on day)", "setting": "[3]; Oral 15 mg/kg, D 7, 10, 13, 16, 19, optimum on day 24", "result": "27(24)* %"}, {"measurement": "BWC [%]", "setting": "[3]; Oral 20 mg/kg, D 7, 10, 13, 16, 19", "result": "−3", "unit": "%"}, {"measurement": "Toxic deaths (d)", "setting": "[3]; Oral 20 mg/kg, D 7, 10, 13, 16, 19, death on day 17", "result": "1(17)"}, {"measurement": "Optimum T/C [%] (on day)", "setting": "[3]; Oral 20 mg/kg, D 7, 10, 13, 16, 19, optimum on day 24", "result": "16(24)* %"}, {"measurement": "BWC [%]", "setting": "[3]; Oral 50 mg/kg, D 7, 14", "result": 0, "unit": "%"}, {"measurement": "Toxic deaths (d)", "setting": "[3]; Oral 50 mg/kg, D 7, 14", "result": 0}, {"measurement": "Optimum T/C [%] (on day)", "setting": "[3]; Oral 50 mg/kg, D 7, 14, optimum on day 17", "result": "22(17)* %"}, {"measurement": "BWC [%]", "setting": "[3]; Oral 100 mg/kg, D 7, 14", "result": "−4", "unit": "%"}, {"measurement": "Toxic deaths (d)", "setting": "[3]; Oral 100 mg/kg, D 7, 14, death on day 20", "result": "1(20)"}, {"measurement": "Optimum T/C [%] (on day)", "setting": "[3]; Oral 100 mg/kg, D 7, 14, optimum on day 24", "result": "4(24)* %"}, {"measurement": "activity after oral administration (in words)", "setting": "[3]; oral, all tested schedules", "result": "High dose dependent activity"}, {"measurement": "significance of antitumour activity (in words)", "setting": "[3]; oral, all the tested schedules", "result": "Significant antitumour activity"}, {"measurement": "BWC [%] (body weight change)", "setting": "[4]; [10]", "result": "−4", "unit": "%"}, {"measurement": "Toxic deaths (d)", "setting": "[4]; [10]", "result": 0}, {"measurement": "Optimum T/C [%] (volume of treated tumour versus control tumour)", "setting": "[4]; [10]", "result": "17* %"}, {"measurement": "antitumour activity in terms of reductions in tumor growth (in words)", "setting": "[4]; IP 40 mg/kg", "result": "high antitumour activity"}, {"measurement": "antitumor effect (in words)", "setting": "[5]; IP 40 mg/kg every third day for five times", "result": "Excellent antitumor effect"}, {"measurement": "Toxic deaths (d)", "setting": "[5]; [10]", "result": 0}, {"measurement": "BWC D 8-15 (body weight change)", "setting": "[5]; IP 40 mg/kg, D8, 11, 14, 17, 20, D 8-15", "result": "−1"}, {"measurement": "Optimum T/C [%]", "setting": "[5]; [10]", "result": "19* %"}]}, {"compound": "Nc1ccn([C@@H]2O[C@H](CO)[C@@H](O)C2(F)F)c(=O)n1", "note": "[Gemcitabine, 2′,2′-difluorodeoxycytidine, reference compound]", "values": [{"measurement": "maximum tolerated dose", "setting": "[1]", "result": "approximately 120 mg/kg per injection"}, {"measurement": "BWC D 8-15 (body weight change)", "setting": "[6]", "result": "−3"}, {"measurement": "BWC [%] D 13", "setting": "[2]; mouse, in vivo, po, 120 mg/kg", "result": "−16", "unit": "%"}, {"measurement": "BWC [%] D 13", "setting": "[2]; mouse, in vivo, po, 180 mg/kg", "result": "−22", "unit": "%"}, {"measurement": "BWC [%] D 13", "setting": "[2]; mouse, in vivo, po, 240 mg/kg", "result": "−21", "unit": "%"}, {"measurement": "BWC [%] (body weight change)", "setting": "[7]", "result": "−5", "unit": "%"}, {"measurement": "Toxic deaths (d)", "setting": "[4]; IP 120 mg/kg, D8, 11, 14, 17, 20, death on day 18", "result": "1(18)"}, {"measurement": "Optimum T/C [%] (volume of treated tumour versus control tumour)", "setting": "[4]; [11]", "result": "17* %"}, {"measurement": "antitumour activity in terms of reductions in tumor growth (in words)", "setting": "[4]; IP 120 mg/kg", "result": "high antitumour activity"}, {"measurement": "antitumor effect (in words)", "setting": "[5]; IP 120 mg/kg every third day for five times", "result": "Excellent antitumor effect"}, {"measurement": "Toxic deaths (d)", "setting": "[5]; [11]", "result": 0}, {"measurement": "Optimum T/C [%]", "setting": "[5]; [11]", "result": "15* %"}]}]}
